What was measured:
E6 and E7 genes of HPV = details: known from WO2005/063293, WO2009/020198, Yamamoto et al. 2014; cited from earlier work
KSHV [1] = test: Viruses in ascites and plasma of PEL xenograft mice; assay type: in vivo, mice (NOD/SCID mice); details: 300 mg/kg bw intraperitoneally three times a week, 45 days
Description: BCBL-1 cells were intraperitoneally inoculated into immunodeficient mice (NOD/SCID mice) so that PEL xenograft models were produced. PEL refers to “primary effusion lymphoma”, as described above.
The mice were divided into a compound A administered group and a control group. […] To the control group, PBS was administered intraperitoneally three times a week instead of the compound A. Exemplary results thereof are shown in FIG. 5.
Viruses in ascites and plasma of the above-described mice were detected.

BCBL-1 cells = test: Intraperitoneal administration to PEL xenograft mouse models; assay type: in vivo, mice (NOD/SCID mice); details: 300 mg/kg bw intraperitoneally three times a week, 45 days
Description: BCBL-1 cells were intraperitoneally inoculated into immunodeficient mice (NOD/SCID mice) so that PEL xenograft models were produced. PEL refers to “primary effusion lymphoma”, as described above. The mice were divided into a compound A administered group and a control group. […] To the control group, PBS was administered intraperitoneally three times a week instead of the compound A. Exemplary results thereof are shown in FIG. 5.

lytic genes = test: Suppression of lytic induction in KSHV+ PEL cells (RT-PCR and Western blotting); assay type: cell-based; details: BC-3 cells and BCBL-1 cells undergoing lytic induction, 48 hours
Description: Both of the BC-3 cells and the BCBL-1 cells are cell lines of KSHV^+ PEL cells. Regarding the BC-3 cells, it is known that TPA (12-O-tetradecanoylphorbol-13-acetate) and SB (sodium butyrate) cause cytokine stimulation, which results in the lytic induction. Further, regarding the BCBL-1 cells, it is known that VPA (valproic acid) causes cytokine stimulation, which results in the lytic induction.
Such cytokine stimulation was given to the BC-3 cells and the BCBL-1 cells, and the cells were cultured for 24 hours or 48 hours. Then, RNA of the same was collected, and was subjected to RT-PCR.
Effects of the compound A (the compound A produced in Production Example 1, also described as “Cp. A”) were confirmed by using the same BC-3 cells and BCBL-1 cells as those in Reference Example 1.
The compound A was added to the BC-3 cells and the BCBL-1 cells undergoing lytic induction and cultured for 48 hours; then, the cultured cells were analyzed by RT-PCR and Western blotting.

KSHV [2] = test: Suppression of viral replication: KSHV copy number by real-time PCR; assay type: cell-based; details: BCBL-1 cells undergoing lytic induction, 96 hours, compound increased to 5 μM and to 10 μM
Description: Effects of the compound A on the KSHV copy number were analyzed by real-time PCR.
The compound A was added to the BCBL-1 cells undergoing lytic induction and cultured for 96 hours; then, DNA samples were collected and analyzed by real-time PCR.

Fc1ccc(N2CCCCC2)c(NC(=S)c2ccncc2)c1 [compound A, N-[5-fluoro-2-(1-piperidinyl)phenyl]-4-pyridinethioamide]
expression of the E6 and E7 genes of HPV (E6 and E7 genes of HPV): suppress | p53 gene stabilization (E6 and E7 genes of HPV): stabilize | amount of viruses in ascites (KSHV [1]; ascites): significantly decrease | amount of viruses in plasma (KSHV [1]; plasma): significantly decrease | amount of ascites (BCBL-1 cells; vs control group (PBS)): significantly less | enlarged spleen (BCBL-1 cells; vs control group, data not shown): particularly suppressed | expression of the lytic genes at protein level (Western blotting) (lytic genes): suppressed | expression amount of lytic genes (RT-PCR) (lytic genes; compound increased to 5 μM and to 10 μM): decreased | virus copy number (real-time PCR) (KSHV [2]): decreased
